In patent publication US20120178147A1, “MICROBIAL CULTURES AND METHODS FOR ANAEROBIC BIOREMEDIATION” (priority 2009, published 2012):
Read-outs that look alike come from different tables or passages of the source.

Key:
[1] = system: sediment microcosms; test: Effect of TCC, TCS and BES on TCE dechlorination in sediment microcosms and cultures derived from them; assay type: cell-based; settings: for effect on TCE reductive dechlorination in microcosms: addition of 20 μg/L TCC and TCS; for effect on TCE dechlorination rates in sediment-free cultures: cultures from microcosms amended with TCC, TCS, BES
Protocol: In this study, microcosm is defined as: anaerobic airtight serum bottles with sediment samples, anaerobic medium, electron donor, and a chlorinated compound used as an electron acceptor. Four microcosms were set up in the anaerobic glove chamber with H2 concentration of 3% (Coy laboratory products Inc. Grass Lake, Mich.). Ten gram of homogeneously mixed sediment from either core A or core D were transferred independently into a 160 ml sterile serum bottle, and 90 ml anaerobic media with vitamin solution and 2 mM lactate were added. One hundred μL of 20 mg/L TCC stock solution in methanol and 100 μL of 20 mg/L TCS stock solution were added by pipette (Eppendorf, Calif.) to two of the four microcosms. Microcosms were capped with thick black butyl rubber stoppers and aluminum crimps. 4.5 μL pure TCE was injected with airtight syringe (Hamilton Company, Reno, Nev.) into each serum bottle. On day 130, in order to inhibit methane production in the sediment microcosms, 25 mM BES was added in to sediment-A microcosm and sediment-D microcosm with TCC and TCS with airtight syringe (Hamilton Company, Reno, Nev.). Microcosms were stored in the dark and incubated at 30° C.
Production of Sediment-Free Cultures. To establish sediment-free cultures from core A and core D sediment microcosms, the microcosms were shaken vigorously, and the solids were allowed to settle down. Then, using 1-inch, 21-gauge sterile needles, […] liquid (10 ml) were transferred into 89 ml sterile medium with the following contents: anaerobic medium, ATCC vitamin mix, and vitamin B12, in 160-ml serum bottles. Then, 1 ml each of 500-mM lactate stock solution and 35-μL TCE stock solution (1 mol/L in methanol) were added to form a 100 ml culture in 160-ml serum bottle. Three sediment cultures were derived from each sediment microcosm, and 12 sediment-free cultures were produced (FIG. 1). For organizational purposes, we refer to the sediment-free cultures generated from sediment-A microcosms as SCA and the sediment free cultures generated from sediment-D microcosms as DehaloR̂2, in the figures herein, the DehaloR̂2 are referred to as “SCD”. Thus, the term “SCD” and DehaloR̂2 are used interchangeably herein as the composition “SCD” was renamed “DehaloR̂2” during the course of investigation. The sediment-free cultures were kept in the dark and incubated at 30° C. After all the chlorinated electron acceptors were consumed, the cultures were re-spiked with TCE and electron donors.
BES (2-bromoethanesulfonate) is an efficient inhibitor for the metabolism of methanogens in methanogenetic cultures because it is a structural analog and competitive inhibitor of coenzyme M, which is only found in methanogens (Dimarco et al., 1990; Sparling and Daniels, 1987). Different concentrations of BES have been used by researchers. […] In this study, in order to determine if the cause for incomplete reductive dechlorination was competition for electron donor between methanogens and TCE dechlorinating microorganisms in the microcosms, I added 25 mM BES, 70 μmol of TCE, and 5 mM lactate into two sediment microcosms, sediment-A and sediment-D with TCC and TCS. In two other sediment microcosms, I added 70 μmol of TCE and 5 mM lactate without BES.

[2] = cited from earlier work
[3] = at 25° C., table values calculated using PBT Profiler and ECOSAR

SMILES	effect on TCE reductive dechlorination in microcosms [1]	effect on TCE dechlorination rates in sediment-free cultures [1]	Water solubility ([2]; at 20° C.) [mg/L]	Water solubility [2, 3] [mg/L]	Water solubility ([2]; at 25° C., table values calculated using PBT Profiler and ECOSAR, listed as Triclosan) [mg/L]	Water solubility ([2]; at 25° C., table values calculated using PBT Profiler and ECOSAR, listed as Triclocarban) [mg/L]
Oc1cc(Cl)ccc1Oc1ccc(Cl)cc1Cl [TCS, 5-chloro-2-[2,4-dichloro-phenoxy]-phenol]	can be neglected	slow down TCE dechlorination rates	<1	4.6	1.97 to 4.62	
O=C(Nc1ccc(Cl)cc1)Nc1ccc(Cl)c(Cl)c1 [TCC, 3-(4-chlorophenyl)-1-(3,4-dichlorphenyl) urea]	can be neglected	slow down TCE dechlorination rates	0.05	0.65		0.65 to 1.55
